The values that follow come from the supplement of paper PMC10307832.

Assay in all cases: relative viability (nuclei count vs DMSO), 5 days (fraction); higher = more cells survive
Compound in test [1]: CC1=C(C=C(C=C1)NC(=O)C2=CC(=CC=C2)C(C)(C)C#N)NC3=CC4=C(C=C3)N=CN(C4=O)C [AZ628] + COc1cccc2cc(-c3nc([C@H]4CC[C@H](C(=O)O)CC4)n4ncnc(N)c34)[nH]c12 [OSI-027] (partner 0.5 µM)
In short, it runs like this:
(§1)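 Relative viability was taken as the ratio of nuclei in treated wells to nuclei in vehicle wells. Lung cancer cell lines in 1536-well plates received compounds by pin tool one day after seeding, either one drug alone or a fixed anchor-drug dose plus five library-drug doses (not always all listed) in √10 steps. Nuclei were counted on 4× images after 5 days of treatment, and values are medians of duplicate plates.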

Compound in test [2]: C1CC2=C(C1)C=C(C=C2)OC3=NC(=C4C(=N3)N(C=N4)CC5=CC=C(C=C5)C6=CC=CC=C6)N[C@@H](CC7=CC=CC=C7)CO [QS11] + CC1(C)CCC(c2ccc(Cl)cc2)=C(CN2CCN(c3ccc(C(=O)NS(=O)(=O)c4ccc(N[C@H](CCN5CCOCC5)CSc5ccccc5)c(S(=O)(=O)C(F)(F)F)c4)cc3)CC2)C1 [Navitoclax] (partner 0.5 µM)
In short, it runs like this:
as §1

Compound in test [3]: CC1=C(C=C(C=C1)NC(=O)C2=CC(=CC=C2)C(C)(C)C#N)NC3=CC4=C(C=C3)N=CN(C4=O)C [AZ628] + N=C(N)NC(=N)NCCc1ccccc1 [Phenformin] (partner 250 µM)
In short, it runs like this:
as §1

Compound in test [4]: C1CC2=C(C1)C=C(C=C2)OC3=NC(=C4C(=N3)N(C=N4)CC5=CC=C(C=C5)C6=CC=CC=C6)N[C@@H](CC7=CC=CC=C7)CO [QS11] + C[C@@H](Oc1cc(-c2cnn(C3CCNCC3)c2)cnc1N)c1c(Cl)ccc(F)c1Cl [Crizotinib] (partner 1 µM)
In short, it runs like this: as §1

On to LCLC-97TM1, for which the relative viability in test [1] (first compound 0.08 µM) worked out at 0.577; in test [1] (first compound 0.253 µM), 0.328; in test [1] (first compound 0.8 µM) it was 0.315; in test [1] (first compound 2.53 µM), 0.327; in test [1] (first compound 8 µM) it was 0.198; in test [2] (first compound 0.08 µM), 0.414. Also, the relative viability in test [2] (first compound 0.253 µM) is 0.328; in test [2] (first compound 0.8 µM) it was 0.387; in test [2] (first compound 2.53 µM), 0.503; in test [2] (first compound 8 µM), 0.432; in test [3] (first compound 0.08 µM) it was 0.55; in test [3] (first compound 0.253 µM) it was 0.459. The relative viability was found to be 0.421 in test [3] (first compound 0.8 µM); 0.457 in test [3] (first compound 2.53 µM); 0.308 in test [3] (first compound 8 µM); 0.275 in test [4] (first compound 0.08 µM); 0.351 in test [4] (first compound 0.253 µM); 0.392 in test [4] (first compound 0.8 µM). The relative viability is 0.403 in test [4] (first compound 2.53 µM) and 0.355 in test [4] (first compound 8 µM).
